Laboratory results reported in US20250375450A1, “SMARCA2/4 INHIBITION AS A STRATEGY TO TREAT TUMORS THAT HARBOR ABERRANT BAF ASSEMBLIES” (BOARD OF REGENTS, THE UNIVERSITY OF TEXAS SYSTEM, priority 2022, published 2025).

Tests used:
SMARCA2 = biological target: T1, SMARCA2 (Homo sapiens, UniProt P51531); test: Secondary ATPase assay; format: biochemical
T1 construct: The SMARCA2-1 gene (amino acids 437-1493) encompassing all domains; made in house; host or cells: expiSF9 insect cells (baculovirus, pFASTBac1)
T1 sequence (P51531 437-1493): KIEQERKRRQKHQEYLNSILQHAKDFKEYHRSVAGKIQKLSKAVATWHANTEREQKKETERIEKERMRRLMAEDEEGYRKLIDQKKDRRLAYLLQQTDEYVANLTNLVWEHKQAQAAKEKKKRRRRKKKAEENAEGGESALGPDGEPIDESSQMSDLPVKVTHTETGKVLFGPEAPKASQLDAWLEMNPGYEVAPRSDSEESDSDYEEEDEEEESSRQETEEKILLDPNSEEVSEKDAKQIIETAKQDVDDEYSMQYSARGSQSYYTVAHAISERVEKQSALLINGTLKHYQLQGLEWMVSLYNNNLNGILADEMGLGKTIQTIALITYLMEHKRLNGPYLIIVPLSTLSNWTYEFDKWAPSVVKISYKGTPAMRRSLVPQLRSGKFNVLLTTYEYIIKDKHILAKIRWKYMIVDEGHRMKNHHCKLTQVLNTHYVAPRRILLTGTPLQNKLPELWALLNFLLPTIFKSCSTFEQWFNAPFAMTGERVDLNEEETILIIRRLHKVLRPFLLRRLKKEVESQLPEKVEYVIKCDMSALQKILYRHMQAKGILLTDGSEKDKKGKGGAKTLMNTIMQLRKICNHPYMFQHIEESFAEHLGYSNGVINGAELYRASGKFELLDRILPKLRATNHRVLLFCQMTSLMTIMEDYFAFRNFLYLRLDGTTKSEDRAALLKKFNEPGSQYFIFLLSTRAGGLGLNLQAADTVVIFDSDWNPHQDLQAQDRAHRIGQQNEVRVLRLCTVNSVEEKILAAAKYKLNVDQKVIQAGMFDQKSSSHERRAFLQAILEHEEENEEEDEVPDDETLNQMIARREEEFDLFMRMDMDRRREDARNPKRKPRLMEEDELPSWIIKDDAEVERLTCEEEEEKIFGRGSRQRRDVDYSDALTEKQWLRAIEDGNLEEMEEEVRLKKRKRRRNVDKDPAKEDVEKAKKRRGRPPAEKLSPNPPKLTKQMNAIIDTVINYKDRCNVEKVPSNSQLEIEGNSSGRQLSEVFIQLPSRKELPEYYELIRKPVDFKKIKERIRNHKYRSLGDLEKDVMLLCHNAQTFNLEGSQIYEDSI
Procedure: Exemplary compounds were evaluated for their ability to inhibit human SMARCA2 in ATPase assays as detailed in Table 2 below. Dose response curves for compound nos.

SMARCAL1 = SMARCAL1 (Homo sapiens, UniProt Q9NZC9); test: Activity of other SWI/SNF ATPases not part of the BAF complex; format: biochemical; details: SWI/SNF ATPase not part of the BAF complex
SMARCAL1, sequence (Q9NZC9 whole entry): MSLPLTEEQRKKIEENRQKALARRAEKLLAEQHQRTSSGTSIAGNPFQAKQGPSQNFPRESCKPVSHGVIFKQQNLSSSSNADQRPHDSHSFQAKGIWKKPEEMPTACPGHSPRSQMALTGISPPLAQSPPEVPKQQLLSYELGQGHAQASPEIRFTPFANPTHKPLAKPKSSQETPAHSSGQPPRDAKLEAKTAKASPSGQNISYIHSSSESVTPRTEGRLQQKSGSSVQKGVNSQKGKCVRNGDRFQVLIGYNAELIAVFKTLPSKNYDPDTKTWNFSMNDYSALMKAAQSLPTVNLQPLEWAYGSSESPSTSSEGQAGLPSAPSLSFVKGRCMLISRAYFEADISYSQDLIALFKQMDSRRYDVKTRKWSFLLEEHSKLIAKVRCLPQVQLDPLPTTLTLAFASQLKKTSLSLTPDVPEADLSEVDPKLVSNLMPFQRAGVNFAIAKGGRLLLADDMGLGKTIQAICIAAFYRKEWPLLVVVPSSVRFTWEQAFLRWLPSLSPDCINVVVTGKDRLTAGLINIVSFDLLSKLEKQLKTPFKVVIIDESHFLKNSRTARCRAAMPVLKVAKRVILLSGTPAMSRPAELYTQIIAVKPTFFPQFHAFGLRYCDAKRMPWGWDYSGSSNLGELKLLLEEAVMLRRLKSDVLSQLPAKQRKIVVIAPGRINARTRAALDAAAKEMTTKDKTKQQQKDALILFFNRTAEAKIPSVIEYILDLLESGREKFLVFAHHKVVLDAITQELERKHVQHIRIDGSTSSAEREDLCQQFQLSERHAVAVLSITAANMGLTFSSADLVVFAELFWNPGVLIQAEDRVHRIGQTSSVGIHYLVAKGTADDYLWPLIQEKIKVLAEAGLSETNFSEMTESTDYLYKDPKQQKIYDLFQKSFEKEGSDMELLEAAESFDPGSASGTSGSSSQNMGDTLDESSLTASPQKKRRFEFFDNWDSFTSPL

RH41 cells = test: Cell cycle analysis, propidium iodide/RNase flow cytometry; format: cell-based; details: 7.5 μM AT-301, 24 hours
Procedure: (§1) Referring to FIG. 11A and FIG. 11B, RH4 (FIG. 11A) and ES3 (FIG. 11B) cells were treated with the indicated concentrations of BAF-X-1 or DMSO in triplicate and apoptosis was detected using the IncuCyte Caspase 3/7 green dye (Sartorius). Brightfield and green fluorescence images were captured every 2 hours from 4 fields per well on the IncuCyte live cell imager. The proportion of caspase positive (green) cells relative to % confluence of the well was calculated on the IncuCyte software and plotted against time. Referring to FIG. 11C and FIG. 11D, RH41 cells were treated with 7.5 μM AT-301 (FIG. 11D) or DMSO (FIG. 11C) for 24 hours, harvested with accutase, washed, and fixed in 70% ethanol. They were subsequently stained with propidium iodide/RNase and fluorescence was analyzed on BD flow cytometer. Resulting data was analyzed using FlowJo software.
To test the alterations in cell cycle upon AT-301 treatment, RH41 cells were cultured in 12 well plates, detached using Accutase (Corning, 25-058-Cl), washed with PBS, and fixed in 70% ethanol. For staining, the fixed cells were washed with PBS and stained with FxCycle PI/RNase staining solution (Invitrogen, F10797) as per the supplier's directions. Fluorescence intensity of stained cells was measured on (BD system) and analyzed using FlowJo.

[1] = tested on: FOXO1 expression in RH41 cells; test: Immunoblot of oncogenic transcription factor levels; format: cell-based; details: 4 and 12 hrs of treatment
From the text: (§2) FIG. 12A-D show representative data illustrating that the assembly of BAF complex is perturbed by AT-301 inhibitor without perturbing oncogenic fusion protein levels. Referring to FIG. 12A and FIG. 12B, immunoblots of RH41 (FIG. 12A) and ES7 (FIG. 12B) cells after 4 and 12 hrs of treatment with AT-301 or DMSO. FOXO1 and FLI1 expression remains unchanged upon AT-301 treatment. Referring to FIG. 12C and FIG. 12D, gel filtration chromatography of ES3 (FIG. 12C) and RH41 (FIG. 12D) cell nuclear lysates after BAF-X-1 treatment are shown. […]
(§3) Next, whether the levels of oncogenic transcription factors in RH41 and ES7 cells change upon treatment with AT-301 was tested. Harvested cells were lysed in NP-40 lysis buffer (Thermo Scientific, J60766) supplemented with protease and phosphatase inhibitor (Halt Protease and phosphatase inhibitor cocktail (Thermo Scientific). Total protein was quantified using Bradford assay (Biorad), and 20 μg of it was denatured and separated on pre-cast tris-acetate or tris-glycine gels (Invitrogen). The protein was then transferred to nitrocellulose membranes (Cytiva) and subsequently probed using primary and secondary antibodies. The signal was detected using Clarity and Clarity Max ECL substrates (Biorad) and imaged on Biorad ChemiDoc).

[2] = tested on: FLI1 expression in ES7 cells; test: as above; format: cell-based; details: 4 and 12 hrs of treatment
From the text: as §2, §3

Ewing's sarcoma (EW13) = test: Patient-derived xenograft (PDX) mouse model, single mouse testing (SMT); format: in vivo; details: 50 mg/kg orally three times a week for four weeks
Procedure: To assess the antitumor activity of AT-301 in a mouse model, a single mouse testing (SMT) experiment was used. SMT has 95% concordance with conventional testing and allows far greater inclusion of genetic/epigenetic heterogeneity. A patient-derived xenograft (PDX) mouse model (C.B.17 scid females (Envigo, IN)) of Ewing's sarcoma (EW13) was used in the SMT experiment. 50 mg/kg of AT-301 (formulated in 30% captisol) or just vehicle (30% captisol) was administered orally three times a week for four weeks.

[3] = tested on: RH41 (rhabdomyosarcoma) cells; test: Apoptosis, IncuCyte Caspase-3/7 green reagent; format: cell-based
Procedure: as §1
(§4) The medium was then replaced with fresh medium containing dilutions of the compound (AT-301) or DMSO (as a negative control), and 1× IncuCyte Caspase-3/7 green reagent (Sartorius) and proliferation/apoptosis was measured on IncuCyte live-cell imaging system. The treated cells were imaged every (2/4) hours and four fields from each well were imaged for analysis.

[4] = tested on: ES3 (Ewing's sarcoma) cells; test: Apoptosis, IncuCyte Caspase-3/7 green reagent; format: cell-based
Procedure: as §1, §4

ES3 cells = test: Live imaging of ES3 cells; format: cell-based
Procedure: In vivo live imaging of ES3 cells in the presence of AT-301 (IC50˜5 μM).
Briefly, human SMARCA2 was purified, and a high-throughput screen (HTS) of 40,000 compounds was conducted. […] In brief, cells were grown in RPMI media supplemented with 10% Fetal bovine serum (FBS), 1× penicillin, and streptomycin antibiotics. Cells were placed in an incubator with 5% C02 and 50% humidity. When cells reached 90% confluency, cells were harvested, washed twice in 1×PBS, counted using trypan blue exclusion method. Then cells were seeded in 96-well plates (duplicates, n=2) at the density of 20,000 cells per well. Allowed them to attach to the bottom of the well for 1 to 2 hrs and treated with different concentration of AT-301 compound starting at highest concentration of 10 micromolar to serial dilution of the compound to the lowest concentration of 0.039 micromolar. Cells treated with only DMSO were also included as negative control. Cells were monitored for 72 hrs. by live cell imaging method (Incucyte S3) taking images every two hours. The confluency was determined and plotted against time (hours) by using Prism software.

IC50 (SMARCA2): ~5 µM
Inhibition of activity of SMARCAL1 (SMARCAL1): fails to inhibit
IC50 (ES3 cells): ~5 µM
Structure (SMILES): Clc1ccc(CNc2nc(NC3CCCC3)nc3ccccc23)cc1Cl [AT-301, N^2-cyclopentyl-N^4-(3,4-dichlorobenzyl)quinazoline-2,4-diamine]
Cell cycle alteration (RH41 cells): arrested in GO-Gi phase
Expression of oncogenic transcription factor (FOXO1) [1]: does not alter the expression
Expression of oncogenic transcription factor (FLI1) [2]: does not alter the expression
Tumor growth (Ewing's sarcoma (EW13); 30% captisol, EW13 PDX in C.B.17 scid females): completely suppressed the tumor growth
Body weight (Ewing's sarcoma (EW13); EW13 PDX mouse): without any apparent loss in body weight
Apoptosis (caspase 3/7) [3]: induces apoptosis
Apoptosis (caspase 3/7) [4]: induces apoptosis
